Measurements from ChEMBL document CHEMBL3414474, “Design and synthesis of piperidine derivatives as novel human heat shock protein 70 inhibitors for the treatment of drug-resistant tumors” (Eur J Med Chem, 2015).
Activity calls are given as the source filed them. The rule behind the calls is not given here.

Tests used:
[1] = Growth inhibition of human BT474 cells incubated for 72 hrs by ATP detection based luminescent assay; format: functional, cell-based; settings: BT-474, 72 h
[2] = Growth inhibition of human BT/LapR1.0 cells incubated for 72 hrs by ATP detection based luminescent assay; format: functional
HepG2 = experiment: Growth inhibition of human HepG2 cells at 0.016 to 4 uM incubated for 72 hrs by ATP detection based luminescent assay; format: functional, cell-based
Huh-7 = experiment: Growth inhibition of human HuH7 cells at 0.016 to 4 uM incubated for 72 hrs by ATP detection based luminescent assay; format: functional, cell-based
NCI-N87 = experiment: Growth inhibition of human NCI-N87 cells at 0.016 to 4 uM incubated for 72 hrs by ATP detection based luminescent assay; format: functional, cell-based
BGC-823 = experiment: Growth inhibition of human BGC823 cells at 0.016 to 4 uM incubated for 72 hrs by ATP detection based luminescent assay; format: functional, cell-based
ASPC1 = experiment: Growth inhibition of human AsPC1 cells at 0.016 to 4 uM incubated for 72 hrs by ATP detection based luminescent assay; format: functional, cell-based
MIA PaCa-2 = experiment: Growth inhibition of human MIAPaCa2 cells at 0.016 to 4 uM incubated for 72 hrs by ATP detection based luminescent assay; format: functional, cell-based
COLO 205 = experiment: Growth inhibition of human COLO205 cells at 0.016 to 4 uM incubated for 72 hrs by ATP detection based luminescent assay; format: functional, cell-based
HT-29 = experiment: Growth inhibition of human HT-29 cells at 0.016 to 4 uM incubated for 72 hrs by ATP detection based luminescent assay; format: functional, cell-based
A549 = experiment: Growth inhibition of human A549 cells at 0.016 to 4 uM incubated for 72 hrs by ATP detection based luminescent assay; format: functional, cell-based
NCI-H460 = experiment: Growth inhibition of human H460 cells at 0.016 to 4 uM incubated for 72 hrs by ATP detection based luminescent assay; format: functional, cell-based
[3] = Growth inhibition of human WI38 cells at 0.016 to 4 uM incubated for 72 hrs by ATP detection based luminescent assay; format: cell-based; settings: wi-38, 72 h
MRC5 = experiment: Growth inhibition of human MRC5 cells at 0.016 to 4 uM incubated for 72 hrs by ATP detection based luminescent assay; format: cell-based; settings: mrc5, 72 h
Homo sapiens = organism: Homo sapiens; experiment: Inhibition of HSP70 (unknown origin) at 200 uM pre-incubated for 30 mins followed by ATP addiction and measured after 3 hrs by malachite green reagent based colorimetric assay
[4] = Growth inhibition of human BT474 cells at 5 uM incubated for 72 hrs by ATP detection based luminescent assay; format: functional; settings: BT-474, 72 h, read-out: GI
[5] = Growth inhibition of human BT/LapR1.0 cells at 5 uM incubated for 72 hrs by ATP detection based luminescent assay; format: functional; settings: read-out: GI
MDA-MB-361 = experiment: Growth inhibition of human MDA-MB-361 cells at 5 uM incubated for 72 hrs by ATP detection based luminescent assay; format: functional; settings: MDA-MB-361, 72 h, read-out: GI
[6] = Growth inhibition of human SKBR3 cells at 5 uM incubated for 72 hrs by ATP detection based luminescent assay; format: functional; settings: SK-BR-3, 72 h, read-out: GI
[7] = Growth inhibition of human SK/LapR1.0 cells at 5 uM incubated for 72 hrs by ATP detection based luminescent assay; format: functional; settings: read-out: GI
MDA-MB-453 = experiment: Growth inhibition of human MDA-MB-453 cells at 5 uM incubated for 72 hrs by ATP detection based luminescent assay; format: functional; settings: MDA-MB-453, 72 h, read-out: GI
[8] = Binding affinity to human HSP70 at 25 degC by surface plasmon resonance assay
Mus musculus [9] = experiment: Acute toxicity in female KM mouse assessed as mouse mortality at 1555 mg/kg dosed as single oral gavage measured after 5 mins during day 1 to day 14 post dose; format: organism-based; design: dose 1555 mg/kg, route oral; settings: in vivo
Mus musculus [10] = experiment: Acute toxicity in male KM mouse assessed as mouse mortality at 1555 mg/kg dosed as single oral gavage measured after 5 mins during day 1 to day 14 post dose; format: organism-based; design: dose 1555 mg/kg, route oral; settings: in vivo
Mus musculus [11] = experiment: Acute toxicity in female KM mouse assessed as mouse mortality at 1296 mg/kg dosed as single oral gavage measured during day 1 to day 14 post dose; format: organism-based; design: dose 1296 mg/kg, route oral; settings: in vivo
Mus musculus [12] = experiment: Acute toxicity in male KM mouse assessed as mouse mortality at 1080 mg/kg dosed as single oral gavage measured during day 1 to day 14 post dose; format: organism-based; design: dose 1080 mg/kg, route oral; settings: in vivo
Mus musculus [13] = experiment: Acute toxicity in female KM mouse assessed as mouse mortality at 625 mg/kg dosed as single oral gavage measured during day 1 to day 14 post dose; format: organism-based; design: dose 625 mg/kg, route oral; settings: in vivo
Mus musculus [14] = experiment: Acute toxicity in male KM mouse assessed as mouse mortality at 520 mg/kg dosed as single oral gavage measured during day 1 to day 14 post dose; format: organism-based; design: dose 520 mg/kg, route oral; settings: in vivo
Mus musculus [15] = experiment: Acute toxicity in female KM mouse assessed as mouse mortality at 520 mg/kg dosed as single oral gavage measured during day 1 to day 14 post dose; format: organism-based; design: dose 520 mg/kg, route oral; settings: in vivo
Mus musculus [16] = experiment: Acute toxicity in female KM mouse assessed as induction of organ abnormalities mortality at 520 to 1555 mg/kg dosed as single oral gavage measured during day 1 to day 14 post dose; format: organism-based; design: dose 520-1555 mg/kg, route oral; settings: in vivo
Mus musculus [17] = experiment: Acute toxicity in male KM mouse assessed as induction of organ abnormalities mortality at 520 to 1555 mg/kg dosed as single oral gavage measured during day 1 to day 14 post dose; format: organism-based; design: dose 520-1555 mg/kg, route oral; settings: in vivo

| Structure (SMILES) | inhibition (Homo sapiens) | IC50 [1] | IC50 [2] | growth inhibition (GI) (HepG2) | growth inhibition (GI) (Huh-7) | growth inhibition (GI) (NCI-N87) | growth inhibition (GI) (BGC-823) | growth inhibition (GI) (ASPC1) | growth inhibition (GI) (MIA PaCa-2) | growth inhibition (GI) (COLO 205) | growth inhibition (GI) (HT-29) | growth inhibition (GI) (A549) | growth inhibition (GI) (NCI-H460) | growth inhibition (GI) [3] | growth inhibition (GI) (MRC5) | inhibition of growth at 5 µM [4] | inhibition of growth at 5 µM [5] | inhibition of growth at 5 µM (MDA-MB-361) | inhibition of growth at 5 µM [6] | inhibition of growth at 5 µM [7] | other results |
| --- | --- | --- | --- | --- | --- | --- | --- | --- | --- | --- | --- | --- | --- | --- | --- | --- | --- | --- | --- | --- | --- |
| CSc1nccc(N2CCC(N(C)Cc3c(F)cccc3Cl)CC2)n1 | 20.4% | 1040 nM | 940 nM | Active | Active | Active | Active | Active | Active | Active | Active | Active | Active | Non-toxic | Non-toxic |  |  |  |  |  |  |
| CSc1nccc(N2CCC(N(C)Cc3ccc(C#N)cc3)CC2)n1 | 8.14% | 1410 nM | 1470 nM | Active | Active | Active | Active | Active | Active | Active | Active | Active | Active | Non-toxic | Non-toxic | 75.5% | 76.2% | 46.9% | 83.4% | 86.1% | inhibition of growth at 5 µM (MDA-MB-453): 82.4%; Kd [8]: 246 nM; Activity (Mus musculus [9]): Toxic; Activity (Mus musculus [10]): Toxic; Activity (Mus musculus [11]): Toxic; Activity (Mus musculus [12]): Toxic; Activity (Mus musculus [13]): Non-toxic; Activity (Mus musculus [14]): Non-toxic; Activity (Mus musculus [15]): Non-toxic; Activity (Mus musculus [16]): Non-toxic; Activity (Mus musculus [17]): Non-toxic |
| CSc1nccc(N2CCC(N(C)Cc3c(Cl)cccc3Cl)CC2)n1 | 12.8% | 780 nM | 700 nM | Active | Active | Active | Active | Active | Active | Active | Active | Active | Active | Non-toxic | Non-toxic | 73.1% | 70% | 53.2% | 85.9% | 71% | inhibition of growth at 5 µM (MDA-MB-453): 79.2% |

Further lines, with some results ahead:

| inhibition (Homo sapiens) | Structure (SMILES) | IC50 [1] | IC50 [2] | growth inhibition (GI) (HepG2) | growth inhibition (GI) (Huh-7) | growth inhibition (GI) (NCI-N87) | growth inhibition (GI) (BGC-823) | growth inhibition (GI) (ASPC1) | growth inhibition (GI) (MIA PaCa-2) | growth inhibition (GI) (COLO 205) | growth inhibition (GI) (HT-29) | growth inhibition (GI) (A549) | growth inhibition (GI) (NCI-H460) | growth inhibition (GI) [3] | growth inhibition (GI) (MRC5) | inhibition of growth at 5 µM [4] | inhibition of growth at 5 µM [5] | inhibition of growth at 5 µM (MDA-MB-361) | inhibition of growth at 5 µM [6] | inhibition of growth at 5 µM [7] | other results |
| --- | --- | --- | --- | --- | --- | --- | --- | --- | --- | --- | --- | --- | --- | --- | --- | --- | --- | --- | --- | --- | --- |
| 8.28% | CSc1nccc(N2CCC(N(C)Cc3ccc(Cl)cc3Cl)CC2)n1 | 1620 nM | 1680 nM | Active | Active | Active | Active | Active | Active | Active | Active | Active | Active | Non-toxic | Non-toxic |  |  |  |  |  |  |
| 11.6% | CSc1nccc(N2CCC(N(C)Cc3ccccc3Cl)CC2)n1 | 1990 nM | 1700 nM | Active | Active | Active | Active | Active | Active | Active | Active | Active | Active | Non-toxic | Non-toxic | 21.3% | 17.5% | 36.2% | 22.2% | 34.2% | inhibition of growth at 5 µM (MDA-MB-453): 45.3% |
